The experiment deals with recombinant protein Wee-1 (Homo sapiens, UniProt P30291). In words: Inhibition of enzymatic activity of recombinant protein Wee-1 (HTRF). The format is biochemical. As for the experimental part: The inhibitory effect of the compounds on the enzyme activity of recombinant protein Wee-1 was determined by HTRF. The procedures are as follows:
After DMSO or serially diluted compounds (up to 200 nM, 1:5 serially diluted) and recombinant proteins were co-incubated in a kinase buffer at 37° C. for 30 min Fluorescein-PolyGAT and ATP were added, and then the reaction was started by the addition of a substrate. After incubation at room temperature for 90 min, an antibody and a detection solution were added, and after further incubation at room temperature for 60 min, fluorescence values were detected (excitation wavelength: 340 nm, emission wavelengths: 495 and 520 nm). The 520 nm/495 nm fluorescence intensity ratio value was calculated, and compared with that of the DMSO group, and then the inhibition percentages and IC50 values of the compounds were calculated.
Background: In TR-FRET formats the signal depends on donor and acceptor labels being close together.

For orientation: IC50 means the midpoint of a concentration-inhibition curve.

Sequence of recombinant protein Wee-1 (P30291 whole entry): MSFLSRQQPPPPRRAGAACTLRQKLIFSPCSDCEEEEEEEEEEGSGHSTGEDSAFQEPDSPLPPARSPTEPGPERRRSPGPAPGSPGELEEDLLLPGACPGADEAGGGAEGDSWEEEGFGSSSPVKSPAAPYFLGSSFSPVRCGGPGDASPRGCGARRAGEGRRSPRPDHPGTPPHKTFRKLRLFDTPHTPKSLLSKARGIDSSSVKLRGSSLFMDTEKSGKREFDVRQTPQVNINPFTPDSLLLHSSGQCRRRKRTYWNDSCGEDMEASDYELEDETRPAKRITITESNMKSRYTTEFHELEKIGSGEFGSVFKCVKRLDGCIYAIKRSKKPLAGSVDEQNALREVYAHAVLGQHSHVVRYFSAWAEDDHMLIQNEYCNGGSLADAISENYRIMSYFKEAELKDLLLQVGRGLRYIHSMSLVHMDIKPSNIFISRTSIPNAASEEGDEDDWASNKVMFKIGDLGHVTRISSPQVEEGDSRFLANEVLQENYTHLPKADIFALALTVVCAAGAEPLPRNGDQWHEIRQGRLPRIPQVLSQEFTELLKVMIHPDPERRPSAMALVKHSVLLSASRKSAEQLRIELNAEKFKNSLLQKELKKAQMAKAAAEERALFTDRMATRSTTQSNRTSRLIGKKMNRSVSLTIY

Turning to `CN1Cc2cc(Nc3ncc(C#N)c(Nc4cccc(N=S(C)(C)=O)n4)n3)cc3c2[C@@H](CC3)C1` [Compound 52], the IC50 lay within 0.01 to 0.05 µM.

Take `CN1Cc2cc(Nc3ncc(C#N)c(Nc4cccc(N=S(C)(C)=O)n4)n3)cc3c2C(C)(CC3)C1` (centres unmarked) [Compound 53]: the IC50 is 0.01 to 0.05 µM.

As to `CN1Cc2cc(Nc3ncc(C#N)c(Nc4cccc(N=S(C)(C)=O)n4)n3)cc3c2[C@](C)(CC3)C1` [Compound 54], the IC50 fell in the range of 0.01 to 0.05 µM.

Take `CN1Cc2cc(Nc3ncc(C#N)c(Nc4cccc(N=S(C)(C)=O)n4)n3)cc3c2[C@@](C)(CC3)C1` [Compound 55]: the IC50 was 0.01 to 0.05 µM.

Take `CN1Cc2cc(Nc3ncc(C#N)c(Nc4cccc(N=S(C)(C)=O)n4)n3)cc3c2C(CCCC3)C1` (centres unmarked) [Compound 56]: the half-inhibitory concentration (IC50) fell in the range of 0.01 to 0.05 µM.

`CN1Cc2cc(Nc3ncc(C#N)c(Nc4cccc(N=S(C)(C)=O)n4)n3)cc3c2[C@H](CCCC3)C1` [Compound 57]: the IC50 is no more than 0.01 µM.

With `CN1Cc2cc(Nc3ncc(C#N)c(Nc4cccc(N=S(C)(C)=O)n4)n3)cc3c2[C@@H](CCCC3)C1` [Compound 58], the 50% inhibitory concentration (IC50) was no more than 0.01 µM.

As for `CN1Cc2cc(Nc3ncc(C#N)c(Nc4cccc(N=S(C)(C)=O)n4)n3)cc3c2C(C)(CCCC3)C1` (centres unmarked) [Compound 59], the IC50 is no more than 0.01 µM.

`CN1Cc2cc(Nc3ncc(C#N)c(Nc4cccc(N=S(C)(C)=O)n4)n3)cc3c2[C@](C)(CCCC3)C1` [Compound 60]: the IC50 was no more than 0.01 µM.

For `CN1Cc2cc(Nc3ncc(C#N)c(Nc4cccc(N=S(C)(C)=O)n4)n3)cc3c2[C@@](C)(CCCC3)C1` [Compound 61], the IC50 is no more than 0.01 µM.

As to `CN1Cc2cc(Nc3ncc(C#N)c(Nc4cccc(N=S(C)(C)=O)n4)n3)cc3c2C(CCCCC3)C1` (centres unmarked) [Compound 62], the IC50 was no more than 0.01 µM.

On to `CN1Cc2cc(Nc3ncc(C#N)c(Nc4cccc(N=S(C)(C)=O)n4)n3)cc3c2C(C)(CCCCC3)C1` (centres unmarked) [Compound 63], for which the IC50 is no more than 0.01 µM.

As to `CN1Cc2cc(Nc3ncc(C#N)c(Nc4cccc(N=S(C)(C)=O)n4)n3)cc3c2C(CCS3)C1` (centres unmarked) [Compound 65], the IC50 is no more than 0.01 µM.

As for `CN1Cc2cc(Nc3ncc(C#N)c(Nc4cccc(N=S(C)(C)=O)n4)n3)cc3c2C(COC3)C1` (centres unmarked) [Compound 66], the concentration for half-maximal inhibition (IC50) was no more than 0.01 µM.

For `CN1Cc2cc(Nc3ncc(C#N)c(Nc4cccc(N=S(C)(C)=O)n4)n3)cc3c2C(CSC3)C1` (centres unmarked) [Compound 67], the IC50 is no more than 0.01 µM.

With `CN1Cc2cc(Nc3ncc(C#N)c(Nc4cccc(N=S(C)(C)=O)n4)n3)cc3c2C(C1)OCC3` (centres unmarked) [Compound 68], the IC50 is no more than 0.01 µM.

As to `CN1Cc2cc(Nc3ncc(C#N)c(Nc4cccc(N=S(C)(C)=O)n4)n3)cc3c2C(C1)SCC3` (centres unmarked) [Compound 69], the IC50 is no more than 0.01 µM.

As for `CN1Cc2cc(Nc3ncc(C#N)c(Nc4cccc(N=S(C)(C)=O)n4)n3)cc3c2C(CO3)C1` (centres unmarked) [Compound 70], the IC50 is no more than 0.01 µM.

With `CN1Cc2cc(Nc3ncc(C#N)c(Nc4cccc(N=S(C)(C)=O)n4)n3)cc3c2C(CS3)C1` (centres unmarked) [Compound 71], the IC50 is no more than 0.01 µM.

On to `CN1Cc2cc(Nc3ncc(C#N)c(Nc4cccc(N=S(C)(C)=O)n4)n3)cc3c2C(C1)OC3` (centres unmarked) [Compound 72], for which the IC50 was no more than 0.01 µM.

As to `CN1Cc2cc(Nc3ncc(C#N)c(Nc4cccc(N=S(C)(C)=O)n4)n3)cc3c2C(C1)SC3` (centres unmarked) [Compound 73], the IC50 is no more than 0.01 µM.

With `CN1Cc2cc(Nc3ncc(C#N)c(Nc4cccc(N=S(C)(C)=O)n4)n3)cc3c2C(CCCO3)C1` (centres unmarked) [Compound 74], the IC50 was no more than 0.01 µM.

`CN1Cc2cc(Nc3ncc(C#N)c(Nc4cccc(N=S(C)(C)=O)n4)n3)cc3c2C(CCCS3)C1` (centres unmarked) [Compound 75]: the IC50 is no more than 0.01 µM.

In the case of `CN1Cc2cc(Nc3ncc(C#N)c(Nc4cccc(N=S(C)(C)=O)n4)n3)cc3c2C(CCOC3)C1` (centres unmarked) [Compound 76], the IC50 was no more than 0.01 µM.

Turning to `CN1Cc2cc(Nc3ncc(C#N)c(Nc4cccc(N=S(C)(C)=O)n4)n3)cc3c2C(CCSC3)C1` (centres unmarked) [Compound 77], the IC50 is no more than 0.01 µM.

Consider `CN1Cc2cc(Nc3ncc(C#N)c(Nc4cccc(N=S(C)(C)=O)n4)n3)cc3c2C(COCC3)C1` (centres unmarked) [Compound 78], for which the IC50 was no more than 0.01 µM.

Turning to `CN1Cc2cc(Nc3ncc(C#N)c(Nc4cccc(N=S(C)(C)=O)n4)n3)cc3c2C(CSCC3)C1` (centres unmarked) [Compound 79], the IC50 was no more than 0.01 µM.

Consider `CN1Cc2cc(Nc3ncc(C#N)c(Nc4cccc(N=S(C)(C)=O)n4)n3)cc3c2C(C1)OCCC3` (centres unmarked) [Compound 80], for which the IC50 is no more than 0.01 µM.

With `CN1Cc2cc(Nc3ncc(C#N)c(Nc4cccc(N=S(C)(C)=O)n4)n3)cc3c2C(C1)SCCC3` (centres unmarked) [Compound 81], the IC50 was no more than 0.01 µM.

In the case of `CN1Cc2cc(Nc3ncc(C#N)c(Nc4cccc(N=S(C)(C)=O)n4)n3)cc3c2C(CCCCO3)C1` (centres unmarked) [Compound 82], the IC50 was no more than 0.01 µM.

`CN1Cc2cc(Nc3ncc(C#N)c(Nc4cccc(N=S(C)(C)=O)n4)n3)cc3c2C(CCCCS3)C1` (centres unmarked) [Compound 83]: the IC50 was no more than 0.01 µM.

With `CN1Cc2cc(Nc3ncc(C#N)c(Nc4cccc(N=S(C)(C)=O)n4)n3)cc3c2C(C=CCC3)C1` (centres unmarked) [Compound 84], the IC50 was no more than 0.01 µM.

Consider `CN1Cc2cc(Nc3ncc(C#N)c(Nc4cccc(N=S(C)(C)=O)n4)n3)cc3c2C(CC=CC3)C1` (centres unmarked) [Compound 85], for which the half-maximal inhibitory concentration (IC50) is no more than 0.01 µM.

Turning to `CN1Cc2cc(Nc3ncc(C#N)c(Nc4cccc(N=S(C)(C)=O)n4)n3)cc3c2C(CCC=C3)C1` (centres unmarked) [Compound 86], the IC50 was no more than 0.01 µM.

`CN1Cc2cc(Nc3ncc(C#N)c(Nc4cccc(N=S(C)(C)=O)n4)n3)cc3c2C1CCCC3` (centres unmarked) [Compound 88]: the IC50 is no more than 0.01 µM.

With `CN(C)C1Cc2cc(Nc3ncc(C#N)c(Nc4cccc(N=S(C)(C)=O)n4)n3)cc3c2C(CCC3)C1` (centres unmarked) [Compound 89], the half-maximal inhibitory concentration (IC50) was no more than 0.01 µM.

On to `CN(C)C1Cc2cc(Nc3ncc(C#N)c(Nc4cccc(N=S(C)(C)=O)n4)n3)cc3c2C1CCC3` (centres unmarked) [Compound 90], for which the IC50 was no more than 0.01 µM.

On to `CCS(=O)(CC)=Nc1cccc(Nc2nc(Nc3cc4c5c(c3)CN(C)CC5CCC4)ncc2C#N)n1` (centres unmarked) [Compound 91], for which the IC50 is no more than 0.01 µM.

`CN1Cc2cc(Nc3ncc(C#N)c(Nc4cccc(N=S5(=O)CCC5)n4)n3)cc3c2C(CCC3)C1` (centres unmarked) [Compound 92]: the half-maximal inhibitory concentration (IC50) was no more than 0.01 µM.

As to `CN1Cc2cc(Nc3ncc(C#N)c(Nc4cccc(N=S5(=O)CCCC5)n4)n3)cc3c2C(CCC3)C1` (centres unmarked) [Compound 93], the IC50 was no more than 0.01 µM.

As for `CN1Cc2cc(Nc3ncc(C(F)(F)F)c(Nc4cccc(N=S(C)(C)=O)n4)n3)cc3c2C(CCC3)C1` (centres unmarked) [Compound 94], the IC50 is no more than 0.01 µM.

Regarding `CN1Cc2cc(Nc3ncc(C4CC4)c(Nc4cccc(N=S(C)(C)=O)n4)n3)cc3c2C(CCC3)C1` (centres unmarked) [Compound 95], the concentration for half-maximal inhibition (IC50) is no more than 0.01 µM.

Consider `CN1Cc2cc(Nc3ncc(P(C)(C)=O)c(Nc4cccc(N=S(C)(C)=O)n4)n3)cc3c2C(CCC3)C1` (centres unmarked) [Compound 96], for which the IC50 is no more than 0.01 µM.

Regarding `CN1Cc2cc(Nc3ncc(S(C)(=O)=O)c(Nc4cccc(N=S(C)(C)=O)n4)n3)cc3c2C(CCC3)C1` (centres unmarked) [Compound 97], the IC50 was no more than 0.01 µM.

Regarding `CN1Cc2cc(Nc3ncc(C(N)=O)c(Nc4cccc(N=S(C)(C)=O)n4)n3)cc3c2C(CCC3)C1` (centres unmarked) [Compound 98], the half-maximal inhibitory concentration (IC50) was no more than 0.01 µM.

For `CN1Cc2cc(Nc3ncc(-c4ccoc4)c(Nc4cccc(N=S(C)(C)=O)n4)n3)cc3c2C(CCC3)C1` (centres unmarked) [Compound 99], the IC50 is no more than 0.01 µM.

Regarding `CN1Cc2cc(Nc3ncc(Br)c(Nc4cccc(N=S(C)(C)=O)n4)n3)cc3c2C(CCC3)C1` (centres unmarked) [Compound 100], the IC50 was no more than 0.01 µM.

For the compound `CN1Cc2cc(Nc3ncc(C#N)c(Nc4cccc(N=S(C)(C)=O)c4)n3)cc3c2C(CCC3)C1` (centres unmarked) [Compound 101], the IC50 was no more than 0.01 µM.

`CN1Cc2cc(Nc3ncc(C#N)c(Nc4ccnc(N=S(C)(C)=O)c4)n3)cc3c2C(CCC3)C1` (centres unmarked) [Compound 102]: the IC50 was no more than 0.01 µM.

Take `CN1Cc2cc(Nc3ncc(C#N)c(Nc4cncc(N=S(C)(C)=O)c4)n3)cc3c2C(CCC3)C1` (centres unmarked) [Compound 103]: the IC50 is no more than 0.01 µM.

Regarding `CN1Cc2cc(Nc3ncc(C#N)c(Nc4cc(N=S(C)(C)=O)ccn4)n3)cc3c2C(CCC3)C1` (centres unmarked) [Compound 104], the IC50 was no more than 0.01 µM.

As to `CN1Cc2cc(Nc3ncc(C#N)c(Nc4ccnc(N=S(C)(C)=O)n4)n3)cc3c2C(CCC3)C1` (centres unmarked) [Compound 106], the IC50 was no more than 0.01 µM.

Regarding `CN1Cc2cc(Nc3ncc(C#N)c(Nc4nccc(N=S(C)(C)=O)n4)n3)cc3c2C(CCC3)C1` (centres unmarked) [Compound 107], the 50% inhibitory concentration (IC50) is no more than 0.01 µM.

In the case of `CN1Cc2cc(Nc3ncc(C#N)c(Nc4cc(F)cc(N=S(C)(C)=O)n4)n3)cc3c2C(CCC3)C1` (centres unmarked) [Compound 111], the IC50 is no more than 0.01 µM.

For the compound `CN1Cc2cc(Nc3ncc(C#N)c(-n4ccc5c(N=S(C)(C)=O)cccc54)n3)cc3c2C(CCC3)C1` (centres unmarked) [Compound 113], the IC50 is no more than 0.01 µM.

`CN1Cc2cc(Nc3ncc(C#N)c(N4CCc5c(N=S(C)(C)=O)cccc54)n3)cc3c2C(CCC3)C1` (centres unmarked) [Compound 114]: the IC50 is no more than 0.01 µM.

Consider `CN1Cc2cc(Nc3ncc(C#N)c(-c4c[nH]c5c(N=S(C)(C)=O)cccc45)n3)cc3c2C(CCC3)C1` (centres unmarked) [Compound 115], for which the half-inhibitory concentration (IC50) is no more than 0.01 µM.

As to `CN1Cc2cc(Nc3ncc(C#N)c(-c4cn(C)c5c(N=S(C)(C)=O)cccc45)n3)cc3c2C(CCC3)C1` (centres unmarked) [Compound 116], the IC50 is no more than 0.01 µM.

As for `CN1Cc2cc(Nc3ncc(C#N)c(-n4cnc5c(N=S(C)(C)=O)cccc54)n3)cc3c2C(CCC3)C1` (centres unmarked) [Compound 117], the IC50 was no more than 0.01 µM.

For `CN1Cc2cc(Nc3ncc(C#N)c(Nc4nc(N=S(C)(C)=O)cc5[nH]ccc45)n3)cc3c2C(CCC3)C1` (centres unmarked) [Compound 118], the IC50 was no more than 0.01 µM.

Regarding `CN1Cc2cc(Nc3ncc(C#N)c(Nc4nc(N=S(C)(C)=O)cc5c4CCN5)n3)cc3c2C(CCC3)C1` (centres unmarked) [Compound 119], the IC50 was no more than 0.01 µM.

For the compound `CN1Cc2cc(Nc3ncc(C#N)c(Nc4cc5c(c(N=S(C)(C)=O)n4)CCC5)n3)cc3c2C(CCC3)C1` (centres unmarked) [Compound 120], the IC50 was no more than 0.01 µM.

The values above are taken from US12655127B2, “Fused ring compound as Wee-1 inhibitor” (WIGEN BIOMEDICINE TECHNOLOGY (SHANGHAI) CO., LTD., priority 2021, dated 2026).
